From ChEMBL document CHEMBL3784999, “Investigation of 4-amino-5-alkynylpyrimidine-2(1H)-ones as anti-mycobacterial agents” (Bioorg Med Chem, 2016) come the findings set out here.

Values after ≈ are worked out from the molar mass of the structure shown. Active and inactive are the calls of the source. No cut-off for these calls is given here.

Experiment [1] relates to Mycobacterium tuberculosis. The experiment is described as follows: Antimycobacterial activity against rifampicin resistant Mycobacterium tuberculosis H37Rv ATCC 35838. The experiment is classed as functional.
Experiment [2] concerns Mycobacterium tuberculosis. The experiment is described as follows: Antimycobacterial activity against rifampicin resistant Mycobacterium tuberculosis H37Rv ATCC 35838 at 1 ug/ml. The experiment is classed as functional.
In experiment [3] the test system is Mycobacterium tuberculosis. The experiment is described as follows: Antimycobacterial activity against rifampicin resistant Mycobacterium tuberculosis H37Rv ATCC 35838 at 2 ug/ml. In kind it is functional, organism-based.

Compound `CCCCCC#Cc1c[nH]c(=O)nc1N` showed an MIC50 in experiment [1] of 12.5 µg/mL (≈ 60.9 µM).
In turn, `NNC(=O)c1ccncc1` [ISONIAZID] showed an inhibition at 1 µg/mL in experiment [2] of 100%.
In the case of `CO[C@H]1/C=C/O[C@@]2(C)Oc3c(C)c(O)c4c(O)c(c(/C=N/N5CCN(C)CC5)c(O)c4c3C2=O)NC(=O)/C(C)=C\C=C\[C@H](C)[C@H](O)[C@@H](C)[C@@H](O)[C@@H](C)[C@H](OC(C)=O)[C@@H]1C` [RIFAMPIN], in experiment [3], the result was inactive.
